Data reported in US12564206B2, “Multi-supplement food-additive” (THE GOVERNING COUNCIL OF THE UNIVERSITY OF TORONTO, priority 2019, dated 2026).
Read-outs that look alike come from different tables or passages of the source.

Key:
[1] = Stability of folic acid and iodine in fortified salt on storage; conditions: for micronutrient retained in quadruple fortified salt: 6 months storage at 25, 35 and 45 degrees C, 60-70% RH, all cases
Method: However, for comparative study, a solution containing folic acid, iodine and vitamin B12 (spray solution 2 in Table 1) was also used. The solutions (2.5 mL) were sprayed on salt (1 kg) inside a ribbon blender and thoroughly mixed for 20 minutes. The salt samples were dried overnight. The dried salt was returned to the ribbon blender and mixed with premix samples for 2 minutes. Iron premix (i.e. particles containing iron without any B12 or other fortificants) and three of the four iron-B12 premixes were used (adding B12 to TiO2 was not further tested). The target concentrations of the fortificants were 1000 microgram/gram iron, 50 microgram/gram iodine, 25 microgram/gram folic acid and 0.25 microgram/gram vitamin B12.
The fortified salts were divided by solid sample splitter glassware into three portions. Each portion was stored at ambient conditions (25 degrees C.), 35 degrees C. and 60-70% RH, and 45 degrees C. and 60-70% RH. The stability of folic acid and iodine in the salt was monitored over a period of six months.
(§1) Folic Acid Analysis: For the spray solution, samples were diluted with 0.1 M Na2CO3 at ratio 1:1000 v/v and the absorbance of the resulting solution was read at 285 nm. For the salt samples, 5 g aliquots were dissolved in 0.1 M Na2CO3 (10 mL) in a falcon tube. The solution was mixed on a vortex mixer for 2 minutes and filtered with a 0.45 μm syringe filter. The absorbance of the filtrate was immediately read at 285 nm.
(§2) Iodine Analysis: Method 33.149, described by the Association of Official Analytical Chemists (AOAC), was used for iodine quantification in salt and spray solutions (Association of Official Analytical Chemists, 1984). In this method, iodate is reduced to iodine and titrated with sodium thiosulfate using a starch indicator.

[2] = 30 min, 2 mg/mL
Method: The effect of boiling on the stability of folic acid and vitamin B12 was assessed, in order to mimic food preparation. A known amount of folic acid (0.5 g) was weighed into 250 ml of boiling water. Boiling was continued for 30 minutes. At 1, 5, 10, 15, 20, 25, and 30 minutes, the solution was made up to 250 ml, and then 1 ml of the solution was measured out into a centrifuge vial. The same procedure was followed for B12.

[3] = Accelerated kinetic study of folic acid and iodine degradation in spray solution; type: physicochemical; conditions: for degradation constant in spray solution: first order; for activation energy for degradation in the solution: Arrhenius plot
Method: An accelerated kinetic study was conducted to evaluate the stability of the micronutrients in the premixes and solution. The stability of folic acid and iodine in the spray solution was evaluated, and the stability of B12 in the various premixes was evaluated. The solution and premix were stored at 50, 60, 70 and 80 degrees C. for 7 days. For the solution, samples (250 mL) were stored in 400 mL Fisherbrand Glass Bottles. About 1 mL of the samples were collected from the bottles at days 1, 3, 5 and 7, and stored at −20 degrees C. before analysis. For the premix, 1 g was weighed into aluminium weighing dishes. At days 1, 3, 5 and 7, samples were pulverized in a mortar and pestle. Vitamin B12 was extracted with 0.1 M Na2CO3. The crude extract was filtered (0.45 um) and stored at −20 degrees C. before analysis.

[4] = cited from earlier work
[5] = L*a*b* colour analysis of salt sprayed with folic acid; type: physicochemical
Method: While this example was successful, it was observed that the addition of folic acid by spraying can impact the colour of the salt (i.e. a yellow color is observed), which may impact the acceptance of the salt. Accordingly, the inclusion of the folic acid in the premix was evaluated. […] The two other premix samples contained an iron micronutrient, folic acid, and vitamin B12; in one of these two, all of the micronutrients were in the core of the premix, while in the other, folic acid was separated from the iron micronutrient and vitamin B12 by a layer of TiO2.

[6] = Earlier double fortified salt, storage stability; type: physicochemical; conditions: 5 month period, ambient conditions
Source text: Applicant has previously attempted to develop folic acid and iodine spray solutions to investigate the stability of triple fortified salt containing iodine, folic acid and microencapsulated ferrous fumarate.

[7] = Stability of spray solutions on storage; conditions: for retained in spray solution: after 2 months of storage
Method: Formulation and Storage of Spray Solution: Seven sets of spray solutions were formulated, containing folic acid, vitamin B12, iodine, sodium ascorbate, sodium citrate and/or sodium carbonate, as described in Table 1. The stability of the solutions was monitored for 2 months at 25, 35, and 45 degrees C.
as §1, §2
Vitamin B12 Analysis: The iron-B12 premix was pulverized with a mortar and pestle. The pulverized premix (5 g) was weighed into 50 mL falcon tube, and 10 mL of RO water was added and mixed with a vortex mixer for 2 minutes. This was centrifuged for 2 minutes. The supernatant was filtered with a 0.45 micron filter. Vitamin B12 in the filtrate was quantified using UHPLC-MS.

[8] = Stability of vitamin B12 in iron-B12 premix on storage; type: physicochemical; conditions: room temperature, six months; premix made by three approaches (core, spray, HPMC)
Source text: Production of Iron-B12 Premix: Given the instability of vitamin B12 in the spray solutions (as described below with respect to FIG. 4), vitamin B12 was removed from the spray solutions and incorporated into separate particles with the iron micronutrient, as a multi-supplement food-additive, described above (also referred to herein as an ‘iron-B12 premix’). For the iron-B12 premix, 25% TiO2 was used for color masking, and 5% HPMC and 5% soy stearin as the encapsulating coating. […] The stability of vitamin B12 in each iron-B12 premix was evaluated for six months.
This was centrifuged for 2 minutes.

[9] = 12.5 microgram/gram folic acid in salt
[10] = 25 microgram/gram folic acid in salt

Molecule | micronutrient retained in quadruple fortified salt [1] | degradation constant in spray solution ([3]; 60 degrees C) | degradation constant in spray solution ([3]; 70 degrees C) | degradation constant in spray solution ([3]; 80 degrees C) | activation energy for degradation in the solution [3] | solubility in water [4] | micronutrient retained in double fortified salt [6] | stability in solution [7] | retained in spray solution [7] | other results
Nc1nc2ncc(CNc3ccc(C(=O)N[C@@H](CCC(=O)O)C(=O)O)cc3)nc2c(=O)[nH]1 [folic acid] | 74-97% | 0.0349 day⁻¹ | 0.0411 day⁻¹ | 0.0531 day⁻¹ | 4.924 kcal/mol | sparingly soluble | 100% | very stable | ~80% | improvement of folic acid stability with vitamin B12 in core vs other parts of the premix ([1]; QFS, six months, all temperatures): 11-15%; retained after boiling [2]: About 93%; L* of salt [5, 9]: 95.43; a* of salt [5, 9]: −1.53; b* of salt [5, 9]: 8.44; L* of salt [5, 10]: 94.27; a* of salt [5, 10]: −2.92; b* of salt [5, 10]: 13.50
II [iodine, potassium iodate] | 85-100% | 0.0337 day⁻¹ | 0.0432 day⁻¹ | 0.0568 day⁻¹ | 6.092 kcal/mol |  | 100% |  | about 90% | improvement of iodine stability with vitamin B12 in core vs other parts of the premix ([1]; QFS, 45 degrees C, six months): 6-15%; stability in solution ([7]; the spray solutions (FIG. 4)): very stable
vitamin B12 |  |  |  |  |  | very soluble |  | very stable |  | vitamin B12 lost in spray solution ([7]; spray solution at lower pH (8), 2 months storage): > 50%; vitamin B12 lost in spray solution ([7]; spray solution pH 9, 2 months storage at 45 degrees C and 70% RH): ~100%; B12 retained in iron-B12 premix [8]: over 97%
